Assay results as given in ChEMBL document CHEMBL3271994, “Diethyl (4baalpha,4calpha,9aalpha,9balpha)-3,6-dichlorocyclobuta[1,2-b:3,4-b']bisbenzofuran-9a,9b(4bH,4cH)-dicarboxylate: the cis,syn photodimer of ethyl 5-chlorobenzofuran-2-carboxylate, an analogue related to the antilipidemic drug clofibrate” (J Med Chem, 1978).
Activity calls are given as the source filed them. The calls are words filed in the database; no cut-off is given here.

Columns and labels:
Rattus norvegicus [1] = experiment: Antilipidemic activity in triton WR-1339-induced hyperlipidemic Sprague-Dawley rat model assessed as reduction of plasma lipid level at 0.124 mM/kg measured 43 hrs after triton WR-1339 challenge
Rattus norvegicus [2] = experiment: Antilipidemic activity in triton WR-1339-induced hyperlipidemic Sprague-Dawley rat model assessed as reduction of serum triglyceride level at 0.124 mM/kg relative to control; type: functional; parameters: scale not given: the % may be the effect or the level left
Rattus norvegicus [3] = experiment: Antilipidemic activity in purina chow fed Sprague-Dawley rat assessed as reduction of serum triglyceride level at 0.124 mM/kg relative to control; type: functional; parameters: scale not given: the % may be the effect or the level left
Rattus norvegicus [4] = experiment: Antilipidemic activity in sucrose fed Sprague-Dawley rat model assessed as serum cholesterol level at 0.4 mmol/kg, po bid administered for 7 days measured after 12 hrs post last dose (reference value: 61.7 +/- 11.6 mg/dL); type: functional
Rattus norvegicus [5] = experiment: Increase in liver weight in sucrose-fed Sprague-Dawley rat model at 0.4 mmol/kg, po bid administered for 7 days measured after 12 hrs post last dose (reference value: 11.76 +/- 1.32 gm); type: ADME, organism-based; conditions: in vivo
Rattus norvegicus [6] = experiment: Antilipidemic activity in sucrose fed Sprague-Dawley rat model assessed as serum cholesterol level at 0.2 mmol/kg, po bid administered for 7 days measured after 12 hrs post last dose (reference value: 61.7 +/- 11.6 mg/dL); type: functional
Rattus norvegicus [7] = experiment: Increase in microsomal protein level in sucrose-fed Sprague-Dawley rat model at 0.4 mmol/kg, po bid administered for 7 days measured after 12 hrs post last dose (reference value: 32.7 +/- 2.2 mg/gm); type: ADME, organism-based; conditions: in vivo
Rattus norvegicus [8] = experiment: Increase in liver to body weight ratio in sucrose-fed Sprague-Dawley rat model at 0.4 mmol/kg, po bid administered for 7 days measured after 12 hrs post last dose (reference value: 4.07 +/- 0.28 %); type: ADME, organism-based; conditions: in vivo
Rattus norvegicus [9] = experiment: Effect on cytochrome b5 level in sucrose-fed Sprague-Dawley rat model assessed per mg of protein at 0.4 mmol/kg, po bid administered for 7 days measured after 12 hrs post last dose (reference value: 0.184 +/- 0.023 nmol); type: ADME, organism-based; conditions: in vivo
Rattus norvegicus [10] = experiment: Antilipidemic activity in sucrose fed Sprague-Dawley rat model assessed as serum triglyceride level at 0.2 mmol/kg, po bid administered for 7 days measured after 12 hrs post last dose (reference value: 91.9 +/- 19.8 mg/dL); type: functional
Rattus norvegicus [11] = experiment: Increase in NADPH cytochrome c reductase activity in sucrose-fed Sprague-Dawley rat model at 0.2 mmol/kg, po bid administered for 7 days measured after 12 hrs post last dose (reference value: 148.7 +/- 17.7 nmol/mg/min); type: ADME, organism-based; conditions: in vivo
Rattus norvegicus [12] = experiment: Antilipidemic activity in purina chow fed Sprague-Dawley rat assessed as reduction of serum cholesterol level at 0.124 mM/kg relative to control; type: functional; parameters: scale not given: the % may be the effect or the level left
Rattus norvegicus [13] = experiment: Antilipidemic activity in sucrose-fed Sprague-Dawley rat model assessed as reduction in HMG-CoA reductase activity at 0.2 mmol/kg, po bid administered for 7 days measured after 12 hrs post last dose relative to control; type: functional
Rattus norvegicus [14] = experiment: Effect on cytochrome P450 level in sucrose-fed Sprague-Dawley rat model assessed per mg of protein at 0.2 mmol/kg, po bid administered for 7 days measured after 12 hrs post last dose relative to control; type: ADME, organism-based; conditions: in vivo
Rattus norvegicus [15] = experiment: Antilipidemic activity in sucrose-fed Sprague-Dawley rat model assessed as reduction of liver triglyceride level at 0.2 mmol/kg, po bid administered for 7 days measured after 12 hrs post last dose relative to control; type: functional
Rattus norvegicus [16] = experiment: Antilipidemic activity in sucrose-fed Sprague-Dawley rat model assessed as reduction of liver cholesterol level at 0.2 mmol/kg, po bid administered for 7 days measured after 12 hrs post last dose (reference value: 1.86 +/- 0.17 mg/gm); type: functional
Rattus norvegicus [17] = experiment: Increase in NADPH cytochrome c reductase activity in sucrose-fed Sprague-Dawley rat model at 0.2 mmol/kg, po bid administered for 7 days measured after 12 hrs post last dose relative to control; type: ADME, organism-based; conditions: in vivo
Rattus norvegicus [18] = experiment: Increase in liver weight in sucrose-fed Sprague-Dawley rat model at 0.2 mmol/kg, po bid administered for 7 days measured after 12 hrs post last dose (reference value: 11.76 +/- 1.32 gm); type: ADME, organism-based; conditions: in vivo
Rattus norvegicus [19] = experiment: Effect on cytochrome P450 level in sucrose-fed Sprague-Dawley rat model assessed per mg of protein at 0.2 mmol/kg, po bid administered for 7 days measured after 12 hrs post last dose (reference value: 0.361 +/- […] nmol); type: ADME, organism-based; conditions: in vivo
Rattus norvegicus [20] = experiment: Increase in ethylmorphine N-demethylase activity in sucrose-fed Sprague-Dawley rat model at 0.2 mmol/kg, po bid administered for 7 days measured after 12 hrs post last dose relative to control; type: ADME, organism-based; conditions: in vivo
Rattus norvegicus [21] = experiment: Effect on cytochrome b5 level in sucrose-fed Sprague-Dawley rat model assessed per mg of protein at 0.2 mmol/kg, po bid administered for 7 days measured after 12 hrs post last dose (reference value: 0.184 +/- 0.023 nmol); type: ADME, organism-based; conditions: in vivo
Rattus norvegicus [22] = experiment: Antilipidemic activity in sucrose-fed Sprague-Dawley rat model assessed as reduction of liver triglyceride level at 0.4 mmol/kg, po bid administered for 7 days measured after 12 hrs post last dose relative to control; type: functional
Rattus norvegicus [23] = experiment: Antilipidemic activity in sucrose-fed Sprague-Dawley rat model assessed as reduction in HMG-CoA reductase activity at 0.4 mmol/kg, po bid administered for 7 days measured after 12 hrs post last dose relative to control; type: functional
Rattus norvegicus [24] = experiment: Increase in liver to body weight ratio in sucrose-fed Sprague-Dawley rat model at 0.2 mmol/kg, po bid administered for 7 days measured after 12 hrs post last dose (reference value: 4.07 +/- 0.28 %); type: ADME, organism-based; conditions: in vivo
Rattus norvegicus [25] = experiment: Antilipidemic activity in sucrose-fed Sprague-Dawley rat model assessed as reduction of liver cholesterol level at 0.4 mmol/kg, po bid administered for 7 days measured after 12 hrs post last dose (reference value: 1.86 +/- 0.17 mg/gm); type: functional
Rattus norvegicus [26] = experiment: Antilipidemic activity in sucrose fed Sprague-Dawley rat model assessed as serum triglyceride level at 0.4 mmol/kg, po bid administered for 7 days measured after 12 hrs post last dose (reference value: 91.9 +/- 19.8 mg/dL); type: functional
Rattus norvegicus [27] = experiment: Increase in microsomal protein level in sucrose-fed Sprague-Dawley rat model at 0.2 mmol/kg, po bid administered for 7 days measured after 12 hrs post last dose (reference value: 32.7 +/- 2.2 mg/gm); type: ADME, organism-based; conditions: in vivo
Rattus norvegicus [28] = experiment: Antilipidemic activity in triton WR-1339-induced hyperlipidemic Sprague-Dawley rat model assessed as reduction of serum cholesterol level at 0.124 mM/kg relative to control; type: functional; parameters: scale not given: the % may be the effect or the level left
Rattus norvegicus [29] = experiment: Increase in ethylmorphine N-demethylase activity in sucrose-fed Sprague-Dawley rat model at 0.4 mmol/kg, po bid administered for 7 days measured after 12 hrs post last dose relative to control; type: ADME, organism-based; conditions: in vivo
Rattus norvegicus [30] = experiment: Effect on cytochrome P450 level in sucrose-fed Sprague-Dawley rat model assessed per mg of protein at 0.4 mmol/kg, po bid administered for 7 days measured after 12 hrs post last dose relative to control; type: ADME, organism-based; conditions: in vivo
Rattus norvegicus [31] = experiment: Increase in NADPH cytochrome c reductase activity in sucrose-fed Sprague-Dawley rat model at 0.4 mmol/kg, po bid administered for 7 days measured after 12 hrs post last dose relative to control; type: ADME, organism-based; conditions: in vivo

SMILES	Activity (Rattus norvegicus [1])	Activity (Rattus norvegicus [2])	Activity (Rattus norvegicus [3])	Activity (Rattus norvegicus [4])	Activity (Rattus norvegicus [5])	Activity (Rattus norvegicus [7])	Activity (Rattus norvegicus [8])	Activity (Rattus norvegicus [9])	Activity (Rattus norvegicus [12])	Activity (Rattus norvegicus [22])	Activity (Rattus norvegicus [23])	Activity (Rattus norvegicus [25])	Activity (Rattus norvegicus [26])	Activity (Rattus norvegicus [28])	also measured
CCOC(=O)[C@@]12Oc3ccc(Cl)cc3[C@@H]1[C@@H]1c3cc(Cl)ccc3O[C@@]12C(=O)OCC	inactive	33%	24.3%	81 mg/dL	11.99 g	38.2 mg/g	4.03%	0.19 nmol	63.9%	12.34 mg/g	2.41 nmol/mg/h	2.1 mg/g	102.7 mg/dL	176.7%	Activity (Rattus norvegicus [6]): 69.5 mg/dL; Activity (Rattus norvegicus [10]): 70.2 mg/dL; Activity (Rattus norvegicus [11]): 168.7 nmol/mg/min; Activity (Rattus norvegicus [13]): 2.42 nmol/mg/h; Activity (Rattus norvegicus [14]): 138%; Activity (Rattus norvegicus [15]): 8.09 mg/g; Activity (Rattus norvegicus [16]): 1.98 mg/g; Activity (Rattus norvegicus [17]): 123%; Activity (Rattus norvegicus [18]): 11.24 g; Activity (Rattus norvegicus [19]): 0.386 nmol; Activity (Rattus norvegicus [20]): 157%; Activity (Rattus norvegicus [21]): 0.179 nmol; Activity (Rattus norvegicus [24]): 3.69%; Activity (Rattus norvegicus [27]): 41.4 mg/g
CCOC(=O)C(C)(C)Oc1ccc(Cl)cc1 [CLOFIBRATE]	inactive	22.3%	24.1%	31.7 mg/dL	14.3 g	39.3 mg/g	5.24%	0.2 nmol	87%	3.21 mg/g	2.1 nmol/mg/h	1.84 mg/g	26.9 mg/dL	93.2%	Activity (Rattus norvegicus [29]): 180%; Activity (Rattus norvegicus [30]): 262%; Activity (Rattus norvegicus [31]): 163%
